The target of this test is T1, 5-lipoxygenase (Rattus norvegicus, UniProt P12527).
T1 construct: homogenized RBL-1 cells; endogenous in cells; host or cells: RBL-1 cells (20,000×g supernatant of homogenate)
T1 sequence (P12527 1-673): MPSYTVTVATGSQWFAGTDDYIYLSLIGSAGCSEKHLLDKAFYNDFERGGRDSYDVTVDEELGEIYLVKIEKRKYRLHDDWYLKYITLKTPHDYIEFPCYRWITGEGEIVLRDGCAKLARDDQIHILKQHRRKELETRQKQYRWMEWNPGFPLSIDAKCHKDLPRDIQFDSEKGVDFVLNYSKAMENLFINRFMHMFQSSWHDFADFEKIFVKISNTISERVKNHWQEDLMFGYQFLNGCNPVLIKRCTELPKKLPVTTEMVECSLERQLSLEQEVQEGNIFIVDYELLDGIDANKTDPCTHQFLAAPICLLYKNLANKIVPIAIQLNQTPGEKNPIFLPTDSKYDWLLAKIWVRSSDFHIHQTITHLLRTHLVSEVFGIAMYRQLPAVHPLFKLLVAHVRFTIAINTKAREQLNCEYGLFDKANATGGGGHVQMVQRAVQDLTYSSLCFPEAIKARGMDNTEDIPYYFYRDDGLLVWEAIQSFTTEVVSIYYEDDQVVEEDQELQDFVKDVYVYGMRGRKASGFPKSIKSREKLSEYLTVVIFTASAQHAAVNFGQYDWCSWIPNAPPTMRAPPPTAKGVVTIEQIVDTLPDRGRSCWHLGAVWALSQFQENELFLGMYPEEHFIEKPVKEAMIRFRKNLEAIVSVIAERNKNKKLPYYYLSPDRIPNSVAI
The experiment in a line: 5-Lipoxygenase inhibition, 20,000×g supernatant of homogenized RBL-1 cells, radiolabeled arachidonic acid. It is filed as biochemical. The note with it: for IC50: 5-lipoxygenase from RBL-1 20,000 × g supernatant, read-out: IC50 (95% CL). The procedure:
Proc., Fed. Am. Soc. Exp. Biol. 1984, 43, […]. Reactions were initiated by the addition of radiolabeled arachidonic acid and terminated by acidification and ether extraction. Reaction products were separated from nonconvented substrate by thin layer chromatography and measured by liquid scintillation spectroscopy. Inhibition of 5-lipoxygenase activity was calculated as the ratio of the amounts of product formed in the presence and absence of inhibitor.

[1] abbreviates: RBL-1 20,000 × g supernatant, read-out: % Inhibition at μM Conc.

In general, IC50 refers to the point on the concentration scale where inhibition reaches its midpoint. With `Cc1sc(-c2ccc(F)cc2)nc1O` [Example 9, 2-(4-Fluorophenyl)-4-hydroxy-5-methylthiazole], the IC50 amounted to 350 nM. Consider `CCCc1sc(-c2ccccc2)nc1OC(=O)OCC` [Example 54, 2-Phenyl-[4-(carboethoxy)oxy]-5-propylthiazole], for which the IC50 amounted to 910 nM. As for `Cc1sc(-c2ccc(C(=O)OCCc3ccccc3)cc2)nc1O` [Example 13, 2-(4-Carbo-2-phenethoxyphenyl)-4-hydroxy-5-methylthiazole], the IC50 was 980 nM.

As for `Cc1sc(-c2ccccc2F)nc1O` [Example 24, 2-(2-Fluorophenyl)-4-hydroxy-5-methylthiazole], the IC50 came out at 500 nM. In the case of `Cc1sc(-c2ccc(Br)cc2)nc1O` [Example 10, 2-(4-Bromophenyl)-4-hydroxy-5-methylthiazole], the IC50 was determined as 510 nM. The same measure, in the same setting: as for `Cc1sc(-c2ccc(Cl)cc2)nc1O` [Example 11, 2-(4-Chlorophenyl)-4-hydroxy-5-methylthiazole], the figure is 570 nM; as for `CCOC(=O)CCC(=O)Oc1nc(-c2ccccc2)sc1-c1ccccc1` [Example 53, 2-Phenyl-4-ethyl succinyloxy-5-phenylthiazole], 750 nM. The inhibition is the change of the read-out against control, counted positive when it falls. Consider `Oc1nc(-c2cccnc2)sc1-c1ccccc1` [Example 41, 2-(3-Pyridyl)-4-hydroxy-5-phenylthiazole], for which the inhibition at 0.3 µM under setting [1] is 83%.

In the case of `CCCCc1sc(-c2ccccc2)nc1OC(C)=O` [Example 67, 2-Phenyl-4-acetoxy-5-butylthiazole], the IC50 was determined as 950 nM. For `CC(=O)Oc1nc(-c2ccc(-c3ccccc3)cc2)sc1-c1ccccc1` [Example 65, 2-Biphenyl-4-acetoxy-5-phenylthiazole], the inhibition at 0.75 µM (at 0.75 μM, RBL-1 20,000 × g supernatant, read-out: % Inhibition at μM Conc.) is 82%. For the molecule `Oc1nc(-c2ccccc2)sc1-c1ccccc1` [Example 34, 2-Phenyl-4-hydroxy-5-phenylthiazole], the IC50 was found to be 530 nM. With `Cc1ccc(-c2nc(O)c(C)s2)cc1` [Example 33, 2-(4-Methylphenyl)-4-hydroxy-5-methylthiazole], the IC50 was determined as 630 nM. Still for that read-out and setting: as for `CCOC(=O)c1ccc(-c2nc(O)c(C)s2)cc1` [Example 23, 2-(4-Carboethoxyphenyl)-4-hydroxy-5-methylthiazole], the figure is 710 nM. Turning to `COC(=O)c1ccc(-c2nc(OC(C)=O)c(C)s2)cc1` [Example 60, 2-(4-Carbomethoxyphenyl)-4-acetoxy-5-methylthiazole], the IC50 was found to be 690 nM. For the molecule `COc1ccc(-c2nc(O)c(-c3ccccc3)s2)cc1` [Example 43, 2-(4-Methoxyphenyl)-4-hydroxy-5-phenylthiazole], the inhibition at 0.3 µM under setting [1] is 88%. `CC(=O)c1ccc(-c2nc(O)c(C)s2)cc1` [Example 18, 2-(4-Acetylphenyl)-4-hydroxy-5-methylthiazole]: the IC50 is 900 nM. Regarding `Cc1sc(-c2ccccc2)nc1O` [Example 31, 2-Phenyl-4-hydroxy-5-methylthiazole], the IC50 turned out to be 960 nM. Turning to `Cc1sc(-c2cccc(Br)c2)nc1O` [Example 26, 2-(3-Bromophenyl)-4-hydroxy-5-methylthiazole], the IC50 came out at 480 nM.

On to `CC(=O)Oc1nc(-c2ccccc2)sc1-c1ccccc1` [Example 50, 2-Phenyl-4-acetoxy-5-phenylthiazole], for which the inhibition at 0.4 µM under setting [1] amounted to 88%. For the molecule `CC(=O)Oc1nc(-c2ccc(C)cc2)sc1-c1ccccc1` [Example 62, 2-(4-Methylphenyl)-4-acetoxy-5-phenylthiazole], the inhibition at 0.5 µM (at 0.5 μM, RBL-1 20,000 × g supernatant, read-out: % Inhibition at μM Conc.) came to 93%. Regarding `Cc1sc(-c2cccc(F)c2)nc1O` [Example 25, 2-(3-Fluorophenyl)-4-hydroxy-5-methylthiazole], the IC50 came out at 660 nM. Turning to `Oc1nc(-c2ccccc2)sc1CCc1ccccc1` [Example 38, 2-Phenyl-4-hydroxy-5-phenethylthiazole], the IC50 was 690 nM. On to `CCCCCc1nc(OC(C)=O)c(CCC)s1` [Example 68, 2-Pentyl-4-acetoxy-5-propylthiazole], for which, where the note is “at 1 μM, RBL-1 20,000 × g supernatant, read-out: % Inhibition at μM Conc.”, the inhibition at 1 µM was determined as 79%.

For the molecule `Cc1sc(-c2ccc(C#N)cc2)nc1O` [Example 20, 2-(4-Cyanophenyl)-4-hydroxy-5-methylthiazole], the IC50 is 700 nM.

As for `Oc1nc(-c2ccc(F)cc2)sc1-c1ccccc1` [Example 47, 2-(4-Fluorophenyl)-4-hydroxy-5-phenylthiazole], the inhibition at 0.4 µM under setting [1] came out at 82%. For `COC(=O)c1ccc(-c2nc(O)c(C)s2)cc1` [Example 17, 2-(4-Carbomethoxyphenyl)-4-hydroxy-5-methylthiazole], the IC50 stood at 880 nM. Turning to `CCc1sc(-c2ccccc2)nc1O` [Example 35, 2-Phenyl-4-hydroxy-5-ethylthiazole], the IC50 came to 830 nM. The same measure, in the same setting: as for `Cc1cccc(-c2nc(O)c(C)s2)c1Cl` [Example 29, 2-(2-Chloro-3-methylphenyl)-4-hydroxy-5-methylthiazole], the figure is 820 nM; as for `COc1ccc2nc(-c3nc(O)c(C)s3)sc2c1` [Example 6, 2-[2-(6-Methoxybenzothiazolyl)]-4-hydroxy-5-methylthiazole], 890 nM. Turning to `CCOc1ccc(-c2nc(O)c(-c3ccccc3)s2)cc1` [Example 48, 2-(4-Ethoxyphenyl)-4-hydroxy-5-phenylthiazole], the inhibition at 0.4 µM under setting [1] was determined as 77%.

For the molecule `CCCc1sc(-c2ccccc2)nc1O` [Example 36, 2-Phenyl-4-hydroxy-5-propylthiazole], the IC50 was 580 nM.

As for `Cc1ccc(-c2nc(O)c(-c3ccccc3)s2)cc1` [Example 46, 2-(4-Methylphenyl)-4-hydroxy-5-phenylthiazole], the inhibition at 0.4 µM under setting [1] amounted to 91%.

(Values after patent US5124342A, “4-hydroxythiazoles as 5-lipoxygenase inhibitors” (Abbott Laboratories, priority 1990, dated 1992).)
